Literature values, collected in patent publication EP1249231B1, “Pharmaceutical formulations comprising anti-inflammatory compounds and use thereof” (VESIFACT AG, priority 2001, dated 2002).

Conditions: free acid; background statement

Löslichkeit in Wasser und im sauren Milieu des Magensaftes: schlecht löslich
Compound: CC(C)Cc1ccc(C(C)C(=O)O)cc1 (stereo not shown) [Ibuprofen]
